The values below come from patent publication US5424428A, “( -)-[[4-(1,4,5,6-tetrahydro-4-methyl-6-oxo-3-pyridazinyl)phenyl]-hydrazono]p r” (Orion-yhtyma Oy, priority 1991, dated 1995).

In brackets after ≈: the same amount, converted by molar mass.

The subject of series [1] is right ventricular papillary muscle of guinea-pig. As to the kind of experiment: Cardiotonic action in isolated, electrically paced, right ventricular papillary muscle. The settings on record: for EC50: cardiotonic effect, guinea-pig papillary muscle, normal Tyrode's bath solution. The class given is cell-based. The protocol: Cardiotonic action of the (-) and (+) enantiomers of [[4-(1,4,5,6-tetrahydro-4-methyl-6-oxo-3-pyridazinyl)phenyl]hydrazono]propanedinitrile (I) was studied in isolated, electrically paced, right ventricular papillary muscle of guinea-pig. Experiments were carried out in normal Tyrode's bath solution as described by Otani et al., Japan.

Series [2] can be described thus: Bioavailability: concentration of total drug in dog plasma after single dose oral administration. The class given is in vivo. The procedure:
FIG. 1 is a graph depicting the concentration of total [[4-(1,4,5,6-tetrahydro-4-methyl-6-oxo-3-pyridazinyl)phenyl]hydrazono]propanedinitrile in dog plasma over time after single dose oral administration of the racemate and the (-) enantiomer.
Concentration of total [[4-(1,4,5,6-tetrahydro-4-methyl-6-oxo-3-pyridazinyl)phenyl]hydrazono]propanedinitrile in dog plasma after single dose oral administration of the racemate (1 mg/kg) and (-)-enantiomer (0.5 mg/kg) is shown in FIG. 1. Curve A is for the (-)-enantiomer and curve B is for the racemic [[4-(1,4,5,6-tetrahydro-4-methyl-6-oxo-3-pyridazinyl)phenyl]hydrazono]propanedinitrile.

A short description of series [3]: LD50 given intravenously to rats. To be noted: rat, in vivo, intravenous.
A short description of series [4]: Water solubility in 67 mM phosphate buffer (pH 2). It is filed as physicochemical. The procedure:
The water solubility of (-) enantiomer and racemic mixture of
[[4-(1,4,5,6-tetrahydro-4-methyl-6-oxo-3-pyridazinyl)phenyl]-
hydrazono]propanedinitrite (l) in 67 mM phosphate buffer (pH 2).

Consider `CC1CC(=O)NN=C1c1ccc(NN=C(C#N)C#N)cc1` (single isomer, unassigned; (+)) [(+), (+)-[[4-(1,4,5,6-Tetrahydro-4-Methyl-6-Oxo-3-Pyridazinyl)phenyl]Hydrazono]Propanedinitrile], for which the midpoint of the response in series [1], the EC50, lay at 2.8 µM.
Regarding `CC1CC(=O)NN=C1c1ccc(NN=C(C#N)C#N)cc1` (single isomer, unassigned; (-)) [(-) enantiomer, (-)-[[4-(1,4,5,6-Tetrahydro-4-Methyl-6-Oxo-3-Pyridazinyl)phenyl]Hydrazono]Propanedinitrile], the “dose needed to produce the same plasma concentration level of the total drug substance, compared to racemate” value in series [2] (dog, single dose oral, racemate 1 mg/kg, (-)-enantiomer 0.5 mg/kg, FIG. 1) is “less than half dose is needed to produce the same plasma concentration level of the total drug substance”. Also, the “bioavailability compared to racemate” value in series [2] (result in words) is given as “superior compared to racemate”. Besides, the LD50 in series [3] stood at 57 mg/kg. The compound further yielded a solubility in series [4] (aqueous buffer, water solubility, 67 mM phosphate buffer (pH 2)) of 29 µg/mL (≈ 103 µM). Also, in series [4] (ratio (-) enantiomer / racemate), the “water solubility of the (-) enantiomer compared to the racemate” value was “over 30 fold”. In series [1], a half-maximal response (EC50) required 0.06 µM. Besides, the “potency of (-) enantiomer relative to (+) enantiomer” value in series [1] (cardiotonic, ratio (-) vs (+) enantiomer) came to 47 times. Further, the cardiotonic potency entry in series [1] (result in words) is “cardiotonic potency is predominantly due to the optically active (-) enantiomer”.
